Measured values from paper PMC10706420, “A New Drug Discovery Platform: Application to DNA Polymerase Eta and Apurinic/Apyrimidinic Endonuclease 1” (International Journal of Molecular Sciences, 2023).
Read-outs that look alike come from different tables or passages of the source.

Key:
APE1 = target: T1, APE1 (Homo sapiens, UniProt P27695); assay: in-house high-throughput in vitro biochemical assay for APE1 endonuclease activity (fluorescence-based)
T1 construct: made in house

Endonuclease IV = Endonuclease IV (Escherichia coli, UniProt P0A6C1); conditions: from IC50 for APE1 and EndoIV

T1 sequence (P27695 whole entry): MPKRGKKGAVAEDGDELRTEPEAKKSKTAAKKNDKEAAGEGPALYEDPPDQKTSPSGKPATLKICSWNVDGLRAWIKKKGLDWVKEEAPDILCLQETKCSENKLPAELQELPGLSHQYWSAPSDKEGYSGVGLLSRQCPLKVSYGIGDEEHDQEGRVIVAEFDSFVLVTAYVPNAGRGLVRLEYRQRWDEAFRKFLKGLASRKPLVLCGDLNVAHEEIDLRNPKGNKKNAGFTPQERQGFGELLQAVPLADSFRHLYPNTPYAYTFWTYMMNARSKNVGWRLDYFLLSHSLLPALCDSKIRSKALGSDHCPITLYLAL

**Q.** `CC(=O)Nc1sc2c(c1-c1nc3ccccc3s1)CCN(C(C)C)C2` [Inhibitor III] was tested. Which IC50 (APE1) did it give?
**A.** 2000 nM

**Q.** What about the IC50 (APE1; listed as APE1 Inhibitor III) of the same compound?
**A.** ~2000 nM

**Q.** What about the “selectivity for APE1 over EndoIV” value (Endonuclease IV) of the same compound?
**A.** 3 fold
